“Also recorded” adds a separate entry of the source.
Tests used:
[1] = system: JFH-1 HCV; settings: viral titer at 5 μM or 15 μM compared to untreated control
Text: In vitro assay for anti-HCV efficacy. HCV studies typically involve infected patients and chimpanzees. However, recently, a robust HCV infection system was developed with cells derived from the Huh-7 human hepatoma cell line. It is based on the unique JFH-1 HCV consensus cDNA derived from an HCV patient. Using reverse genetics, the infectious virus can be rescued from this HCV clone. The recovered viable JFH virus can be passaged serially in Huh-7 cells. For this reason, this system is amenable for evaluating the activity of test compound for their anti-HCV efficacy.
(§1) Briefly, 6×10^3 Huh7-1 cells are incubated overnight in each well of collagen-coated BioCoat 96-well plates (BD Biosciences, Bedford, Mass.) in 0.2 ml 10% medium composed of Dulbecco's modified Eagle's medium supplemented with 10% fetal bovine serum. Subsequently, at 2 day intervals, the cultures are replenished with fresh 0.2 ml 10% medium. After the cultures become confluent, they continue to be replenished at 2 day intervals with fresh 0.2 ml 10% medium that also includes 1% dimethyl sulfoxide (DMSO). After 20 days of these replenishments, the Huh7-1 cultures are incubated with fresh 1% medium (same as 10% medium except that the serum level is 1%) containing HCV at a multiplicity of infection (MOI) of 0.05 focus forming units (ffu)/cell. The HCV (JFH-lwt Huh7) stock titer is 1.5×10^5 ffu/mL. The next day (day 1 post-infection) and 2 days later (day 3 post-infection) the media are replenished with fresh 1% medium containing the test compounds dissolved in DMSO. On the 5th day of treatment with the compounds, cell lysates are collected for RNA isolation and Real Time-quantitative Reverse Transcription Polymerase Chain Reaction (RT-qPCR) and culture media are collected for cytotoxicity analysis.
(§2) Total RNA is isolated from cells by the guanidine thiocyanate method using standard protocols. One μg RNA is used for cDNA synthesis using TaqMan reverse transcription reagents (Applied Biosystems, Foster City, Calif.) followed by real-time PCR using an Applied Biosystems 7300 real-time thermocycler. Thermal cycling consists of initial denaturation of 10 min at 95° C. followed by 40 cycles of denaturation (15 s at 95° C.) and annealing/extension (1 m at 60° C.). HCV and human glyceraldehyde-3-phosphate dehydrogenase (GAPDH) RNA levels are determined relative to a standard curve of serial dilutions of plasmid containing JFH-1 HCV or GAPDH cDNA. The PCR primers used to detect GAPDH and HCV are: GAPDH (NMX002046) 5′-[…]-3′(SEQ ID NO: 16) (sense) and 5′-[…]-3′(SEQ ID NO: 17) (anti-sense) JFH-1 HCV (AB047639) 5′-[…]-3′(SEQ ID NO: 18) (sense) and 5′-[…]-3′(SEQ ID NO: 19) (anti-sense).

[2] = system: JFH-1 HCV; assay: Co-therapy treatment for HCV infection (intracellular HCV RNA, with and without IFN-β-1b); type: cell-based, Hepatitis C virus; settings: for Fold Inhibition: vs untreated control
Description: as §1, §2
Co-therapy Treatment for HCV Infection. […] The compounds described herein are tested to determine whether they increase the efficacy of either RBV, IFN-β-1b, or a combination thereof. Using the protocol described for determining chemical-evoked reduction in intracellular HCV RNA, the cells are treated with and without 10 U/mL IFN-β-1b in combination with 2.5 or 10 μM of the compounds described herein and for comparison with 10 μM MA and 80 μM RBV.

[3] = system: Bovine Viral Diarrhea Virus strain NADL; assay: Anti-BVDV efficacy, cytopathic (CPE) assay in Bovine Turbinate cells (MTT); type: cell-based; settings: cell survival at 10 μM compared to untreated control; TABLE 4(a)
Description: Assay for Anti-BVDV efficacy. Bovine Turbinate (BT) cells maintained as monolayers in disposable cell culture labware are used for the antiviral efficacy test. Prior to testing, host cell cultures are seeded onto the 96-well cell culture plates and used approximately 48 hours after seeding. […] The growth medium (GM) and maintenance medium (MM) include Dulbecco's Modified Eagle Media (DMEM) with L-glutamine (ATCC #30-2002), 10% Horse serum and penicillin/streptomycin (10,000 units of penicillin and 10,000 μg of streptomycin per mL, Life Technologies #15140-122 or similar) for a final concentration of 100 units penicillin and 100 μg streptomycin in the medium. Bovine Viral Diarrhea Virus strain NADL from BSLI high-titer virus stock is used. Prior to use, aliquots of the stock virus are removed and thawed from a −70° C. freezer. The BVDV is diluted in a maintenance medium (MM) to obtain 0.1 Multiplicity of Infection (MOI). Cytopathic (CPE) assay. CPE refers to degenerative changes in BT tissue culture induced by BVDV as a consequence of its multiplication. BT cell cultures are washed with PBS, and 100 μL aliquots of MM are added to the cells and incubated in a CO2 incubator for 2 hours. After incubation, the MM is removed; the cells washed again with PBS and overlaid with 100 μL of the different concentrations of test compounds. The plates are incubated in a CO2 incubator for 48 to 72 hours. […] This assay is a colorimetric assay that measures the activity of enzymes that reduce MTT to the purple color formazan dye. CPE is confirmed using an Inverted Compound Microscope.

| SMILES | HCV Antiviral Activity [1] | also measured |
| --- | --- | --- |
| O=C(Nc1cccc(-c2cccc(F)c2)c1)C1CCN(Cc2cccc3cccnc23)CC1 [Example 16] | ++ (“++” corresponds to ≦60% viral titer at 5 μM) | Average HCV copies/μg RNA ([2]; 2.5 μM +IFN-β-1b (10 U/mL)): 1.1 × 10^5 copies/μg RNA; Fold Inhibition ([2]; 2.5 μM +IFN-β-1b (10 U/mL)): 85 fold; Average HCV copies/μg RNA ([2]; 2.5 μM, alone): 3.3 × 10^6 copies/μg RNA; Fold Inhibition ([2]; 2.5 μM, alone): 3 fold; Average HCV copies/μg RNA ([2]; 10 μM +IFN-β-1b (10 U/mL)): 9.6 × 10^4 copies/μg RNA; Fold Inhibition ([2]; 10 μM +IFN-β-1b (10 U/mL)): 97 fold; Average HCV copies/μg RNA ([2]; 10 μM, alone): 2.0 × 10^6 copies/μg RNA; Fold Inhibition ([2]; 10 μM, alone): 5 fold; reduction of intracellular HCV RNA levels by the combination with IFN-β-1b (in words) ([2]; combination with IFN-β-1b): more effective than that achieved with RBV; also recorded: reduces intracellular HCV RNA levels more effectively than either agent alone |
| COc1cccc(CN2CCC(C(=O)Nc3ccc(Oc4ccccc4F)cc3)CC2)c1 [Example 70] | + (“+” corresponds to ≦60% viral titer at 15 μM) |  |
| COc1cccc(-c2ccccc2NC(=O)C2CCN(Cc3cccc4ccccc34)CC2)c1 [Example 71] | + (“+” corresponds to ≦60% viral titer at 15 μM) |  |
| C=CCn1cc(CN2CCC(C(=O)Nc3cccc(-c4cccc(Cl)c4)c3)CC2)c(C)n1 [Example 72] | + (“+” corresponds to ≦60% viral titer at 15 μM) |  |
| CCCn1ncc(CN2CCC(C(=O)Nc3ccc(Oc4ccccc4F)cc3)CC2)c1C [Example 73] | + (“+” corresponds to ≦60% viral titer at 15 μM) |  |
| CCN1CCC(N2CCC(C(=O)Nc3ccc(Oc4ccccc4F)cc3)CC2)CC1 [Example 75] | +++ (“+++” corresponds to ≦30% viral titer at 5 μM) |  |
| Cc1nn(C(C)C)c(C)c1CN1CCC(C(=O)Nc2cccc(-c3cccc(F)c3)c2)CC1 [Example 76] | ++ (“++” corresponds to ≦60% viral titer at 5 μM) |  |
| O=C(Nc1ccc(Oc2ccccc2)nc1)C1CCN(Cc2ccccc2)CC1 [Example 77] | ++ (“++” corresponds to ≦60% viral titer at 5 μM) |  |
| CCn1cc(CN2CCC(C(=O)Nc3cccc(-c4cccc(Cl)c4)c3)CC2)cn1 [Example 78] | ++ (“++” corresponds to ≦60% viral titer at 5 μM) |  |
| Cc1nc(C)c(CN2CCC(C(=O)Nc3cccc(-c4cccc(F)c4)c3)CC2)nc1C [Example 79] | ++ (“++” corresponds to ≦60% viral titer at 5 μM) |  |
| CCCn1ncc(CN2CCC(C(=O)Nc3ccccc3-c3cccc(OC)c3)CC2)c1C [Example 80] | + (“+” corresponds to ≦60% viral titer at 15 μM) |  |
| COc1ccc(O)c(CN2CCC(C(=O)Nc3ccc(Oc4ccccc4F)cc3)CC2)c1 [Example 81] | ++ (“++” corresponds to ≦60% viral titer at 5 μM) |  |
| CC(C)n1cc(CN2CCC(C(=O)Nc3cccc(-c4cccc(Cl)c4)c3)CC2)cn1 [Example 82] | + (“+” corresponds to ≦60% viral titer at 15 μM) |  |
| O=C(Nc1ccc(Oc2ccccc2)nc1)C1CCN(Cc2ccc(Cl)s2)CC1 [Example 83] | ++ (“++” corresponds to ≦60% viral titer at 5 μM) |  |
| COc1cccc(CN2CCC(C(=O)Nc3cccc(-c4cccc(F)c4)c3)CC2)c1OC [Example 84] | + (“+” corresponds to ≦60% viral titer at 15 μM) |  |
| COc1cc(CN2CCC(C(=O)Nc3ccc(Oc4ccccc4F)cc3)CC2)ccc1O [Example 85] | ++ (“++” corresponds to ≦60% viral titer at 5 μM) |  |
| CC(C)Cc1cc(CN2CCC(C(=O)Nc3ccc(Oc4ccccc4F)cc3)CC2)n[nH]1 [Example 86] | + (“+” corresponds to ≦60% viral titer at 15 μM) |  |

| SMILES | HCV Antiviral Activity [1] | also measured |
| --- | --- | --- |
| COc1cccc(-c2ccccc2NC(=O)C2CCN(Cc3nc(C)c(C)nc3C)CC2)c1 [Example 87] | ++ (“++” corresponds to ≦60% viral titer at 5 μM) |  |
| COc1cccc(-c2ccccc2NC(=O)C2CCN(Cc3cc(C)ccc3C)CC2)c1 [Example 88] | + (“+” corresponds to ≦60% viral titer at 15 μM) |  |
| O=C(Nc1cccc(-c2cccc(F)c2)c1)C1CCN(Cc2ccc3nsnc3c2)CC1 [Example 90] | + (“+” corresponds to ≦60% viral titer at 15 μM) |  |
| COc1cccc(CN2CCC(C(=O)Nc3cccc(-c4cccc(F)c4)c3)CC2)c1O [Example 91] | ++ (“++” corresponds to ≦60% viral titer at 5 μM) |  |
| O=C(Nc1ccc(-c2nc3ccccc3[nH]2)cc1)C1CCN(CC2CC=CCC2)CC1 (stereo not drawn) [Example 92] | + (“+” corresponds to ≦60% viral titer at 15 μM) |  |
| C=CCn1cc(CN2CCC(C(=O)Nc3cccc(-c4cccc(F)c4)c3)CC2)c(C)n1 [Example 93] | ++ (“++” corresponds to ≦60% viral titer at 5 μM) |  |
| Cc1ccc(CN2CCC(C(=O)Nc3ccc(Oc4ccccc4F)cc3)CC2)o1 [Example 94] | + (“+” corresponds to ≦60% viral titer at 15 μM) |  |
| CCn1ncc(CN2CCC(C(=O)Nc3cccc(-c4cccc(F)c4)c3)CC2)c1C [Example 95] | ++ (“++” corresponds to ≦60% viral titer at 5 μM) |  |
| O=C(Nc1ccc(-c2nc3ccccc3[nH]2)cc1)C1CCN(Cc2cccc(F)c2)CC1 [Example 96] | + (“+” corresponds to ≦60% viral titer at 15 μM) |  |
| CCn1cc(CN2CCC(C(=O)Nc3ccc(Oc4ccccc4F)cc3)CC2)cn1 [Example 97] | ++ (“++” corresponds to ≦60% viral titer at 5 μM) |  |
| O=C(Nc1cccc(-c2cccc(Cl)c2)c1)C1CCN(Cc2ccccn2)CC1 [Example 98] | + (“+” corresponds to ≦60% viral titer at 15 μM) |  |
| Cc1c[nH]c2ncnc(N3CCC(C(=O)Nc4ccc(-c5nc6ccccc6[nH]5)cc4)CC3)c12 [Example 99] |  | BVDV Antiviral Activity [3]: +++ (“+++” corresponds to ≧75 cell survival at 10 μM) |
| Cc1c[nH]c2ncnc(N3CCC(C(=O)Nc4cccc(-c5cc6ccccc6[nH]5)c4)CC3)c12 [Example 100] |  | BVDV Antiviral Activity [3]: +++ (“+++” corresponds to ≧75 cell survival at 10 μM) |
| Cc1c[nH]c2ncnc(N3CCC(C(=O)Nc4ccc(Oc5ccccc5F)cc4)CC3)c12 [Example 101] |  | BVDV Antiviral Activity [3]: ++ (“++” corresponds to >50 but <75 cell survival at 10 μM) |
| Cc1c[nH]c2ncnc(N3CCC(C(=O)Nc4cccc(-c5cccc(F)c5)c4)CC3)c12 [Example 102] |  | BVDV Antiviral Activity [3]: +++ (“+++” corresponds to ≧75 cell survival at 10 μM) |
| NC(=O)c1ncn([C@@H]2O[C@H](CO)[C@@H](O)[C@H]2O)n1 [RBV, ribavirin, reference compound] |  | Average HCV copies/μg RNA ([2]; 80 μM +IFN-β-1b (10 U/mL)): 1.8 × 10^5 copies/μg RNA; Fold Inhibition ([2]; 80 μM +IFN-β-1b (10 U/mL)): 52 fold; Average HCV copies/μg RNA ([2]; 80 μM, alone): 5.0 × 10^6 copies/μg RNA; Fold Inhibition ([2]; 80 μM, alone): 2 fold |

Source: patent publication US9511070B2, “Heterocyclyl carboxamides for treating viral diseases” (NOVADRUG, LLC, priority 2012, dated 2016)
